Measured values taken from the supplement of paper PMC11061612.

What was measured:
Assay in all cases: combination Emax (second highest fraction inhibited in the dose matrix, 72 h); higher = more inhibition; extreme values may be limits of the assay
[1] = system: huH-1 (Hepatocellular Carcinoma)
Summary of the method: (§1)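 Cell lines grown in DMEM/F12 or RPMI with 10% FBS were plated in 1536-well plates and held 24 hours at 37°C, 5% CO2 before 72 hours of exposure to two-drug dose matrices, with DMSO typically at 0.2%. CellTiter-Glo 2.0 luminescence gave viability, which was converted to inhibition. Vehicle wells were set to 0 and blank wells to 1. Combination Emax is the second-highest inhibition in the matrix, and Bliss excess is the observed combination effect minus the expected EA + EB − EA·EB, where EA and EB are the single-agent effects.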

[2] = system: JIMT-1 (Breast Carcinoma)
Summary of the method: as §1

[3] = system: MDA-MB-436 (Breast Carcinoma)
Summary of the method: as §1

PEO1 (Ovarian Carcinoma) = system: PEO1 (Ovarian Carcinoma)
Summary of the method: as §1

[4] = system: 22RV1 (Prostate Carcinoma)
Summary of the method: as §1

[5] = system: NCI-H1703 (Squamous Cell Lung Carcinoma)
Summary of the method: as §1

[6] = system: CA46 (Burkitt's Lymphoma)
Summary of the method: as §1

[7] = system: CAL-27 (Oral Cavity Carcinoma)
Summary of the method: as §1

[8] = system: NCI-H716 (Colorectal Carcinoma)
Summary of the method: as §1

[9] = system: A2780 (Ovarian Carcinoma)
Summary of the method: as §1

[10] = system: NCI-H1651 (Lung Adenocarcinoma)
Summary of the method: as §1

[11] = system: JHH-2 (Hepatocellular Carcinoma)
Summary of the method: as §1

EW-7 (Ewing's Sarcoma) = system: EW-7 (Ewing's Sarcoma)
Summary of the method: as §1

[12] = system: LU-165 (Small Cell Lung Carcinoma)
Summary of the method: as §1

[13] = system: LS-411N (Colorectal Carcinoma)
Summary of the method: as §1

[14] = system: OACp4C (Esophageal Adenocarcinoma)
Summary of the method: as §1

[15] = system: UACC-812 (Breast Carcinoma)
Summary of the method: as §1

[16] = system: GCT (Other Solid Carcinomas)
Summary of the method: as §1

AU565 (Breast Carcinoma) = system: AU565 (Breast Carcinoma)
Summary of the method: as §1

[17] = system: KYSE-140 (Esophageal Squamous Cell Carcinoma)
Summary of the method: as §1

| Compound | combination Emax [1] | combination Emax [2] | combination Emax [3] | combination Emax (PEO1 (Ovarian Carcinoma)) | combination Emax [4] | combination Emax [5] | combination Emax [6] | combination Emax [7] | combination Emax [8] | combination Emax [9] | combination Emax [10] | combination Emax [11] | combination Emax (EW-7 (Ewing's Sarcoma)) | combination Emax [12] | combination Emax [13] | combination Emax [14] | combination Emax [15] | combination Emax [16] | combination Emax (AU565 (Breast Carcinoma)) | combination Emax [17] |
| --- | --- | --- | --- | --- | --- | --- | --- | --- | --- | --- | --- | --- | --- | --- | --- | --- | --- | --- | --- | --- |
| CC1(C)CCC(CN2CCN(c3ccc(C(=O)NS(=O)(=O)c4ccc(NCC5CCOCC5)c([N+](=O)[O-])c4)c(Oc4cnc5[nH]ccc5c4)c3)CC2)=C(c2ccc(Cl)cc2)C1 [Venetoclax] + C[C@@H](Nc1cc(F)cc(F)c1)c1cc(C(=O)N(C)C)cc2c(=O)cc(N3CCOCC3)oc12 [AZD8186] (first compound max 1 µM, 7x7, partner max 3 µM) | 0.152 | 0.087 | 0.288 | 0.0947 | 0.322 | 0.422 | 0.533 | 0.182 | 0.225 | 0.472 | 0.128 | 0.806 | 0.95 | 0.219 | 0.343 | 0.31 | 0.0679 | 0.32 | 0.225 | 0.222 |
| CC1(C)CCC(CN2CCN(c3ccc(C(=O)NS(=O)(=O)c4ccc(NCC5CCOCC5)c([N+](=O)[O-])c4)c(Oc4cnc5[nH]ccc5c4)c3)CC2)=C(c2ccc(Cl)cc2)C1 [Venetoclax] + Cc1cc2ncnn2cc1Nc1ncc2c(n1)n(C1CCOCC1)c(=O)n2C [AZD7648] (first compound max 1 µM, 7x7, partner max 10 µM) | 0.162 | 0.242 | 0.22 | 0.163 | 0.456 | 0.465 | 0.132 | 0.174 | 0.203 | 0.628 | 0.191 | 0.506 | 0.95 | 0.196 | 0.107 | 0.338 | 0.22 | 0.283 | 0.295 | 0.398 |
| CC1(C)CCC(CN2CCN(c3ccc(C(=O)NS(=O)(=O)c4ccc(NCC5CCOCC5)c([N+](=O)[O-])c4)c(Oc4cnc5[nH]ccc5c4)c3)CC2)=C(c2ccc(Cl)cc2)C1 [Venetoclax] + Cn1cnc2c(F)c(Nc3ccc(Br)cc3Cl)c(C(=O)NOCCO)cc21 [Selumetinib] (first compound max 1 µM, 7x7, partner max 3 µM) | 0.114 | 0.14 | 0.111 | 0.19 | 0.368 | 0.178 | 0.403 | 0.466 | 0.366 | 0.377 | 0.0964 | 0.388 | 0.887 | 0.142 | 0.526 | 0.488 | 0.0864 | 0.289 | 0.201 | 0.233 |
